We go through two compounds from publication PMC7115876 (Nature, 2020).

The target of one assay is MBP–β1AR6P (Meleagris gallopavo, UniProt P07700, C116L/C358A/D322K/DEL244-271/E130W/F327A/F338M/M44C/M90V/V103C). Put plainly: Radioligand saturation binding, receptor in nanodiscs. Further details: species or system turkey (Meleagris gallopavo). As to conditions: read-out: apparent Kd.
Another assay addresses MBP–β1AR6P + mini-Gs (Meleagris gallopavo, UniProt P07700, C116L/C358A/D322K/DEL244-271/E130W/F327A/F338M/M44C/M90V/V103C). Description: Radioligand saturation binding, receptor in nanodiscs with mini-Gs. Also on record: species or system turkey (Meleagris gallopavo). As to conditions: read-out: apparent Kd.
For a further assay, the target named is MBP–β1AR6P + βarr1 (Meleagris gallopavo, UniProt P07700, C116L/C358A/D322K/DEL244-271/E130W/F327A/F338M/M44C/M90V/V103C). Description: Radioligand saturation binding, receptor in nanodiscs with βarr1. Further details: species or system turkey (Meleagris gallopavo). Particulars: read-out: apparent Kd.
The next assay deals with β44–V2R. Description: Arrestin recruitment bias from GloSensor cAMP. The assay is classed as cell-based, turkey (Meleagris gallopavo). As to conditions: with reference to isoprenaline, equiactive comparison approach. On the technique in general: Activated receptors often draw arrestin, which recruitment assays turn into a signal.

In the case of `CCCc1ccccc1OCC(O)CNC(C)C` (stereo not shown) [[^3H]DHA, tritiated dihydroalprenolol], the Kd amounted to 6 nM at MBP–β1AR6P, 1.5 nM on MBP–β1AR6P + mini-Gs and 6 nM at MBP–β1AR6P + βarr1.

Regarding `COc1ccc(CC(C)NCC(O)c2ccc(O)c(NC=O)c2)cc1` (stereo not shown) [formoterol], in the assay with β44–V2R, the “bias factor (arrestin recruitment bias)” value was found to be 2.3 ± 0.4.
